Data reported in patent US8299267B2, “(3-hydroxy-4-amino-butan-2-yl) -3- (2-thiazol-2-yl-pyrrolidine-1-carbonyl) benzamide derivatives and related compounds as beta-secretase inhibitors for treating” (CoMentis, Inc., priority 2007, dated 2012).

Columns and labels:
memapsin 2 = memapsin 2 (Homo sapiens, UniProt P56817); test: Inhibition of memapsin 2 beta-secretase activity toward fluorogenic substrate FS-2; assay type: biochemical; conditions: memapsin 2, pH 4, 37° C., 20 minutes pre-incubation, substrate FS-2; read-out: M2Ki
Procedure: Potency of compounds were determined by measurement of their inhibition of memapsin 2 activity toward a fluorescent substrate. Kinetic inhibition experiments were performed using the procedure as described in Ermolieff, et al. (Biochemistry 39:12450-12456 (2000), the teachings of which are incorporated hereby in their entirety). Briefly, assays were performed at pH 4, 37° C., by pre-incubation of memapsin 2 enzyme with compound for 20 minutes. Activity measurements were initiated by addition of a fluorogenic substrate FS-2 (Bachem Americas, Torrance, Calif.) MCA-SEVNLDAEFK-DNP (SEQ ID NO.: 2). The substrate was derived from 10 amino acids of the human amyloid precursor protein (APP), with the Swedish variant amino acids at the beta-secretase cleavage site. The terminal amino acid was modified from arginine to lysine to facilitate derivatization with a functional group for detection by autofluorescence. The amino acid sequence of the “core” peptide of the substrate is SEVNLDAEFK (SEQ ID NO.: 3). The amino terminus was derivatized with (7-methoxycoumarin-4-yl)acetyl (MCA), and the epsilon amine of the lysine side chain of the terminal residue (K in sequence SEVNLDAEFK (SEQ ID NO.: 4)) was derivatized with 2,4-dinitrophenyl (DNP).

[1] = test system: Aβ production in Chinese hamster ovary cells that over-express human APP695 with the London and Swedish mutations; test: Cellular Aβ IC50 determination (Aβ40 sandwich ELISA); assay type: cell-based; conditions: Cricetulus griseus; Aβ40 in CHO cells over-expressing human APP695, 24 h incubation
Procedure: The potency of compounds against memapsin 2 activity was determined in a cellular assay of Aβ production. […] Chinese hamster ovary cells that over-express human APP695 with the London and Swedish mutations were seeded in multi-well plates at 10% confluency. Compounds are dissolved in DMSO to concentrations near 1 mM, and diluted into culture media to a final concentration near 4 μM (final 0.4% DMSO). Compounds were diluted serially and applied to cells in multi-well plates 48 h after seeding. Incubation was continued in 5% CO2 at 37° C. for 24 h. Aliquots were removed and assayed for Aβ40 content using a sandwich ELISA (BioSource International). Amount of Aβ40 over the range of concentration of compounds, relative to control incubations, were fit to a 4-parameter IC50 model.

memapsin 2, sequence (P56817 46-501): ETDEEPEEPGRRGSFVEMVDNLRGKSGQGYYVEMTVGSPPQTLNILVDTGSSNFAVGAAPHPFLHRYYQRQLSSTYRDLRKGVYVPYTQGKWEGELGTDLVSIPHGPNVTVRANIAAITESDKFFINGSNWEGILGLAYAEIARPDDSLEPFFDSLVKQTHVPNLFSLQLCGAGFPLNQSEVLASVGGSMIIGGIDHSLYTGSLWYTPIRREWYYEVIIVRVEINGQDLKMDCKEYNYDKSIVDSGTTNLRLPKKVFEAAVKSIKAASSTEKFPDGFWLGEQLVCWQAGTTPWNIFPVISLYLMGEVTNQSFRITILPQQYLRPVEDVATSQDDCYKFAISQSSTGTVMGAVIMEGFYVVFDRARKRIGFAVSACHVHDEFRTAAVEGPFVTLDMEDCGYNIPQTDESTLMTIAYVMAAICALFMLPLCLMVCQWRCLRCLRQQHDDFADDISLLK

Row | SMILES | Ki (memapsin 2) [nM] | IC50 [1] [nM]
1 | COc1cccc(CNC[C@@H](O)[C@H](Cc2ccccc2)NC(=O)c2cccc(C(=O)N3CCCC3)c2)c1 [Compound 21, N-((2S,3R)-3-hydroxy-4-(3-methoxybenzylamino)-1-phenylbutan-2-yl)-3-(pyrrolidine-1-carbonyl)benzamide] | > 201 | > 501
2 | COC[C@H]1CCCN1C(=O)c1cc(C)cc(C(=O)N[C@@H](Cc2ccccc2)[C@H](O)CNCc2cncc(C(C)C)c2)c1 [Compound 23, N-((2S,3R)-3-hydroxy-4-((5-isopropylpyridin-3-yl)methylamino)-1-phenylbutan-2-yl)-3-((R)-2-(methoxymethyl)pyrrolidine-1-carbonyl)-5-methylbenzamide] | < 100 | < 300
3 | Cc1csc([C@H]2CCCN2C(=O)c2cc(C(=O)N[C@@H](Cc3ccccc3)[C@H](O)CNCc3cncc(C(C)C)c3)cc(-c3ncco3)c2)n1 [Compound 25, N-((2S,3R)-3-hydroxy-4-((5-isopropylpyridin-3-yl)methylamino)-1-phenylbutan-2-yl)-3-((R)-2-(4-methylthiazol-2-yl)pyrrolidine-1-carbonyl)-5-(oxazol-2-yl)benzamide] | < 100 | < 300
4 | Cc1csc([C@H]2CCCN2C(=O)c2cc(C(=O)N[C@@H](Cc3ccccc3)[C@H](O)CNCc3cccc(C(F)(F)F)c3)cc(-c3ncco3)c2)n1 [Compound 28, N-((2S,3R)-3-hydroxy-1-phenyl-4-(3-(trifluoromethyl)benzylamino)butan-2-yl)-3-((R)-2-(4-methylthiazol-2-yl)pyrrolidine-1-carbonyl)-5-(oxazol-2-yl)benzamide] | < 100 | < 300
5 | Cc1csc([C@H]2CCCN2C(=O)c2cc(C(=O)N[C@@H](Cc3ccccc3)[C@H](O)CNCc3cncc(C(C)C)c3)cc(N(C)C)c2)n1 [Compound 29, 3-(dimethylamino)-N-((2S,3R)-3-hydroxy-4-((5-isopropylpyridin-3-yl)methylamino)-1-phenylbutan-2-yl)-5-((R)-2-(4-methylthiazol-2-yl)pyrrolidine-1-carbonyl)benzamide] | < 100 | < 300
6 | Cc1csc([C@H]2CCCN2C(=O)c2cc(C(=O)N[C@@H](Cc3ccccc3)[C@H](O)CNCc3cccc(C(F)(F)F)c3)cc(N(C)C)c2)n1 [Compound 30, 3-(dimethylamino)-N-((2S,3R)-3-hydroxy-1-phenyl-4-(3-(trifluoromethyl)benzylamino)butan-2-yl)-5-((R)-2-(4-methylthiazol-2-yl)pyrrolidine-1-carbonyl)benzamide] | < 100 | < 300
7 | Cc1csc([C@H]2CCCN2C(=O)c2cc(C(=O)N[C@@H](Cc3ccccc3)[C@H](O)CNCc3cncc(C(C)C)c3)cc(-c3cnco3)c2)n1 [Compound 33, N-((2S,3R)-3-hydroxy-4-((5-isopropylpyridin-3-yl)methylamino)-1-phenylbutan-2-yl)-3-((R)-2-(4-methylthiazol-2-yl)pyrrolidine-1-carbonyl)-5-(oxazol-5-yl)benzamide] | < 100 | < 300
8 | Cc1csc([C@H]2CCCN2C(=O)c2cc(C(=O)N[C@@H](Cc3ccccc3)[C@H](O)CNCc3cncc(C(C)(C)F)c3)cc(-c3ncco3)c2)n1 [Compound 38, N-((2S,3R)-4-((5-(2-fluoropropan-2-yl)pyridin-3-yl)methylamino)-3-hydroxy-1-phenylbutan-2-yl)-3-((R)-2-(4-methylthiazol-2-yl)pyrrolidine-1-carbonyl)-5-(oxazol-2-yl)benzamide] | < 100 | < 300
9 | Cc1coc([C@H]2CCCN2C(=O)c2cccc(C(=O)N[C@@H](Cc3ccccc3)[C@H](O)CNCc3cncc(C(C)(C)F)c3)c2)n1 [Compound 39, N-((2S,3R)-4-((5-(2-fluoropropan-2-yl)pyridin-3-yl)methylamino)-3-hydroxy-1-phenylbutan-2-yl)-3-((R)-2-(4-methyloxazol-2-yl)pyrrolidine-1-carbonyl)benzamide] | < 100 | < 300
10 | Cc1csc([C@H]2CCCN2C(=O)c2cc(C(=O)N[C@@H](Cc3ccccc3)[C@H](O)CNCc3cncc(C(C)(F)F)c3)cc(N(C)C)c2)n1 [Compound 40, N-((2S,3R)-4-((5-(1,1-difluoroethyl)pyridin-3-yl)methylamino)-3-hydroxy-1-phenylbutan-2-yl)-3-(dimethylamino)-5-((R)-2-(4-methylthiazol-2-yl)pyrrolidine-1-carbonyl)benzamide] | < 100 | < 300
11 | Cc1csc([C@H]2CCCN2C(=O)c2cc(C(=O)N[C@@H](Cc3ccccc3)[C@H](O)CNCc3cccc(C(C)(C)C)c3)cc(N(C)C)c2)n1 [Compound 41, N-((2S,3R)-4-(3-tert-butylbenzylamino)-3-hydroxy-1-phenylbutan-2-yl)-3-(dimethylamino)-5-((R)-2-(4-methylthiazol-2-yl)pyrrolidine-1-carbonyl)benzamide] | < 100 | < 300

Results, then the compound that gave them:

Row | Ki (memapsin 2) [nM] | IC50 [1] [nM] | SMILES
12 | < 100 | < 300 | COc1cc(C(=O)N[C@@H](Cc2ccccc2)[C@H](O)CN[C@@H](C)c2cccc(OC)c2)cc(C(=O)N2CCC[C@@H]2c2nc(C)cs2)c1 [Compound 20, N-((2S,3R)-3-hydroxy-4-((S)-1-(3-methoxyphenyl)ethylamino)-1-phenylbutan-2-yl)-3-methoxy-5-((R)-2-(4-methylthiazol-2-yl)pyrrolidine-1-carbonyl)benzamide]
13 | < 100 | < 300 | COc1cccc([C@H](C)NC[C@@H](O)[C@H](Cc2ccccc2)NC(=O)c2cccc(C(=O)N3CCC[C@@H]3c3nc(C)cs3)c2)c1 [Compound 22, N-((2S,3R)-3-hydroxy-4-((S)-1-(3-methoxyphenyl)ethylamino)-1-phenylbutan-2-yl)-3-((R)-2-(4-methylthiazol-2-yl)pyrrolidine-1-carbonyl)benzamide]
14 | < 100 | < 300 | Cc1csc([C@H]2CCCN2C(=O)c2cccc(C(=O)N[C@@H](Cc3ccccc3)[C@H](O)CNCc3cc(O)cc(C(C)C)c3)c2)n1 [Compound 24, N-((2S,3R)-3-hydroxy-4-(3-hydroxy-5-isopropylbenzylamino)-1-phenylbutan-2-yl)-3-((R)-2-(4-methylthiazol-2-yl)pyrrolidine-1-carbonyl)benzamide]
15 | < 100 | < 300 | Cc1csc([C@H]2COCN2C(=O)c2cccc(C(=O)N[C@@H](Cc3ccccc3)[C@H](O)CNCc3cccc(C(F)(F)F)c3)c2)n1 [Compound 26, N-((2S,3R)-3-hydroxy-1-phenyl-4-(3-(trifluoromethyl)benzylamino)butan-2-yl)-3-((R)-4-(4-methylthiazol-2-yl)oxazolidine-3-carbonyl)benzamide]
16 | < 100 | < 300 | Cc1csc([C@H]2CCCN2C(=O)c2cncc(C(=O)N[C@@H](Cc3ccccc3)[C@H](O)CNCc3cncc(C(C)C)c3)c2)n1 [Compound 27, N-((2S,3R)-3-hydroxy-4-((5-isopropylpyridin-3-yl)methylamino)-1-phenylbutan-2-yl)-5-((R)-2-(4-methylthiazol-2-yl)pyrrolidine-1-carbonyl)nicotinamide]
17 | < 100 | < 300 | Cc1csc([C@H]2CCCN2C(=O)c2cncc(C(=O)N[C@@H](Cc3ccccc3)[C@H](O)CNCc3cccc(C(F)(F)F)c3)c2)n1 [Compound 31, N-((2S,3R)-3-hydroxy-1-phenyl-4-(3-(trifluoromethyl)benzylamino)butan-2-yl)-5-((R)-2-(4-methylthiazol-2-yl)pyrrolidine-1-carbonyl)nicotinamide]
18 | 101 to 200 | < 300 | Cc1csc([C@H]2CCCN2C(=O)c2cncc(C(=O)N[C@@H](Cc3ccccc3)[C@H](O)CNCc3cccc(C(C)(C)C)c3)c2)n1 [Compound 32, N-((2S,3R)-4-(3-tert-butylbenzylamino)-3-hydroxy-1-phenylbutan-2-yl)-5-((R)-2-(4-methylthiazol-2-yl)pyrrolidine-1-carbonyl)nicotinamide]
19 | < 100 | < 300 | Cc1coc([C@H]2CCCN2C(=O)c2cccc(C(=O)N[C@@H](Cc3ccccc3)[C@H](O)CNCc3cncc(C(C)C)c3)c2)n1 [Compound 34, N-((2S,3R)-3-hydroxy-4-((5-isopropylpyridin-3-yl)methylamino)-1-phenylbutan-2-yl)-3-((R)-2-(4-methyloxazol-2-yl)pyrrolidine-1-carbonyl)benzamide]
20 | < 100 | < 300 | Cc1coc([C@H]2CCCN2C(=O)c2cccc(C(=O)N[C@@H](Cc3ccccc3)[C@H](O)CNCc3cccc(C(F)(F)F)c3)c2)n1 [Compound 35, N-((2S,3R)-3-hydroxy-1-phenyl-4-(3-(trifluoromethyl)benzylamino)butan-2-yl)-3-((R)-2-(4-methyloxazol-2-yl)pyrrolidine-1-carbonyl)benzamide]
